Measurements from PubChem BioAssay AID248 (DTP/NCI, 2004).
“And” between values parts separate entries of the source, which are not always exact repeats. Equal values may be shown once. Toxic doses and inconclusive results are not listed. No stated cut-off is given here; in the data, active means T/C of 150% or more; inactive means T/C below 125%.

System: L1210 leukemia ip in BDF1 mice, survival T/C
Test: NCI In Vivo Anticancer Drug Screen. Data for tumor model L1210 Leukemia (intraperitoneal) in B6D2F1 (BDF1) mice
Details: endpoint: mean survival time, higher = longer survival
Procedure, shortened: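 Read-out is survival time, reported as the treated-group measurement over the vehicle-control measurement.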

[1] = dose: 100.0 mg/kg/injection, schedule: Q01DX009 (ip), vehicle: Klucel (hydroxypropylcellulose) (HPC)
[2] = dose: 100.0 mg/kg/injection, schedule: Q04DX003 (ip), vehicle: Klucel (hydroxypropylcellulose) (HPC)
[3] = dose: 200.0 mg/kg/injection, schedule: Q01DX009 (ip), vehicle: Klucel (hydroxypropylcellulose) (HPC)
[4] = dose: 200.0 mg/kg/injection, schedule: Q04DX003 (ip), vehicle: Klucel (hydroxypropylcellulose) (HPC)
[5] = dose: 400.0 mg/kg/injection, schedule: Q01DX009 (ip), vehicle: Klucel (hydroxypropylcellulose) (HPC)
[6] = dose: 400.0 mg/kg/injection, schedule: Q04DX003 (ip), vehicle: Klucel (hydroxypropylcellulose) (HPC)
[7] = dose: 100.0 mg/kg/injection, schedule: Q01DX001 (ip), vehicle: saline
[8] = dose: 200.0 mg/kg/injection, schedule: Q01DX001 (ip), vehicle: saline
[9] = dose: 400.0 mg/kg/injection, schedule: Q01DX001 (ip), vehicle: saline
[10] = dose: 25.0 mg/kg/injection, schedule: Q01DX009 (ip), vehicle: Klucel (hydroxypropylcellulose) (HPC)
[11] = dose: 50.0 mg/kg/injection, schedule: Q01DX009 (ip), vehicle: Klucel (hydroxypropylcellulose) (HPC)
[12] = dose: 100.0 mg/kg/injection, schedule: Q04DX003 (ip), vehicle: saline
[13] = dose: 200.0 mg/kg/injection, schedule: Q04DX003 (ip), vehicle: saline
[14] = dose: 400.0 mg/kg/injection, schedule: Q04DX003 (ip), vehicle: saline
[15] = dose: 100.0 mg/kg/injection, schedule: Q04DX002 (ip), vehicle: saline with Tween-80
[16] = dose: 200.0 mg/kg/injection, schedule: Q04DX002 (ip), vehicle: saline with Tween-80
[17] = dose: 50.0 mg/kg/injection, schedule: Q04DX003 (ip), vehicle: saline with Tween-80
[18] = dose: 400.0 mg/kg/injection, schedule: Q04DX003 (ip), vehicle: saline with Tween-80
[19] = dose: 100.0 mg/kg/injection, schedule: Q04DX003 (ip), vehicle: saline with Tween-80
[20] = dose: 50.0 mg/kg/injection, schedule: Q01DX001 (ip), vehicle: saline
[21] = dose: 100.0 mg/kg/injection, schedule: Q01DX009 (ip), vehicle: saline
[22] = dose: 200.0 mg/kg/injection, schedule: Q01DX009 (ip), vehicle: saline
[23] = dose: 200.0 mg/kg/injection, schedule: Q04DX003 (ip), vehicle: saline with Tween-80

Measured: T/C

CCc1ccc(Nc2c([N+](=O)[O-])cc(C)cc2[N+](=O)[O-])cc1
inactive: [1] 97 % of control | [2] 103 % of control | [3] 105 % of control | [4] 108 % of control | [5] 113 % of control | [6] 102 % of control

Cc1ccc(Nc2cc(=S)nc(N)[nH]2)cc1C
inactive: dose: 100.0 mg/kg/injection, schedule: Q01DX Z (ip), vehicle: methylcellulose (MC) 103 % of control | dose: 200.0 mg/kg/injection, schedule: Q01DX Z (ip), vehicle: methylcellulose (MC) 95 % of control

Cc1[nH]c(=O)[nH]c(=O)c1CCO
inactive: [7] 96 % of control | [8] 102 % of control | [9] 100 % of control

CCCCCC#CCCCCl
inactive: dose: 50.0 mg/kg/injection, schedule: Q01DX001 (ip), vehicle: carboxymethylcellulose (CMC) 101 % of control | dose: 50.0 mg/kg/injection, schedule: Q01DX009 (ip), vehicle: carboxymethylcellulose (CMC) 95 % of control and 97 % of control | dose: 50.0 mg/kg/injection, schedule: Q04DX003 (ip), vehicle: carboxymethylcellulose (CMC) 98 % of control | dose: 100.0 mg/kg/injection, schedule: Q01DX001 (ip), vehicle: carboxymethylcellulose (CMC) 96 % of control | dose: 100.0 mg/kg/injection, schedule: Q01DX009 (ip), vehicle: carboxymethylcellulose (CMC) 93 % of control and 95 % of control | dose: 100.0 mg/kg/injection, schedule: Q04DX002 (ip), vehicle: carboxymethylcellulose (CMC) 95 % of control and 97 % of control | dose: 100.0 mg/kg/injection, schedule: Q04DX003 (ip), vehicle: carboxymethylcellulose (CMC) 102 % of control | dose: 200.0 mg/kg/injection, schedule: Q01DX001 (ip), vehicle: carboxymethylcellulose (CMC) 91 % of control | dose: 200.0 mg/kg/injection, schedule: Q01DX009 (ip), vehicle: carboxymethylcellulose (CMC) 95 % of control | dose: 200.0 mg/kg/injection, schedule: Q04DX002 (ip), vehicle: carboxymethylcellulose (CMC) 100 % of control and 107 % of control | dose: 200.0 mg/kg/injection, schedule: Q04DX003 (ip), vehicle: carboxymethylcellulose (CMC) 94 % of control

C=CCC(C)(C)/C=N/N
inactive: dose: 37.5 mg/kg/injection, schedule: Q04DX003 (ip), vehicle: saline 101 % of control | dose: 75.0 mg/kg/injection, schedule: Q04DX003 (ip), vehicle: saline 102 % of control | dose: 150.0 mg/kg/injection, schedule: Q04DX003 (ip), vehicle: saline 98 % of control

CC1=Nc2ccccc2/C1=C\c1c(C)[nH]c2ccccc12
inactive: [10] 97 % of control | [11] 97 % of control | dose: 50.0 mg/kg/injection, schedule: Q01DX009 (ip), vehicle: acetone 101 % of control | [7] 96 % of control | [1] 97 % of control | dose: 100.0 mg/kg/injection, schedule: Q04DX003 (ip), vehicle: acetone 96 % of control | [8] 101 % of control | [3] 97 % of control | dose: 200.0 mg/kg/injection, schedule: Q04DX003 (ip), vehicle: acetone 99 % of control | [9] 104 % of control

CC1C(=O)OC(C)(C)OC1=O
inactive: [10] 99 % of control | [11] 100 % of control | [1] 98 % of control | [3] 94 % of control | [5] 103 % of control

CCCCCCC(=O)/C=C/C=C/c1ccccc1
inactive: [1] 97 % of control | [2] 98 % of control | [3] 91 % of control | [4] 98 % of control | [5] 100 % of control | [6] 94 % of control

Cc1ccccc1NC(=O)NCCBr
inactive: dose: 50.0 mg/kg/injection, schedule: Q01DX009 (ip), vehicle: saline with Tween-80 95 % of control | dose: 100.0 mg/kg/injection, schedule: Q01DX009 (ip), vehicle: saline with Tween-80 95 % of control

COC1OC2COC(c3ccccc3)OC2C(NC(C)=O)C1OC(C)=O (centres undefined)
inactive: [12] 98 % of control | [13] 97 % of control | [14] 101 % of control

Ic1ccc2c(c1)OCCOCCOCCOCCO2
inactive: dose: 50.0 mg/kg/injection, schedule: Q04DX002 (ip), vehicle: saline with Tween-80 102 % of control | [15] 102 % of control | [16] 107 % of control

COc1cc(\C=N/N=C/C=C/c2ccccc2)cc(OC)c1OC
inactive: [17] 95 % of control | [15] 87 % of control and 90 % of control | [16] 104 % of control and 113 % of control | dose: 400.0 mg/kg/injection, schedule: Q04DX002 (ip), vehicle: saline with Tween-80 102 % of control and 103 % of control | [18] 93 % of control and 88 % of control

COc1cccc(C(=O)C=C(C(F)(F)F)C(F)(F)F)c1
inactive: dose: 25.0 mg/kg/injection, schedule: Q04DX003 (ip), vehicle: saline with Tween-80 95 % of control | [17] 97 % of control | [19] 94 % of control

O=c1[nH]c(Nc2ccccc2)c([N+](=O)[O-])c(=O)[nH]1
inactive: dose: 9.0 mg/kg/injection, schedule: Q01DX001 (ip), vehicle: Klucel (hydroxypropylcellulose) (HPC) 98 % of control | dose: 18.0 mg/kg/injection, schedule: Q01DX001 (ip), vehicle: Klucel (hydroxypropylcellulose) (HPC) 110 % of control | dose: 37.0 mg/kg/injection, schedule: Q01DX001 (ip), vehicle: Klucel (hydroxypropylcellulose) (HPC) 101 % of control | dose: 75.0 mg/kg/injection, schedule: Q01DX001 (ip), vehicle: Klucel (hydroxypropylcellulose) (HPC) 104 % of control

N#CC(Cc1ccccc1)c1ccccc1 (centres undefined)
inactive: [20] 97 % of control | [7] 106 % of control | [8] 101 % of control

CCCCC(CC)COC(OCC(CC)CCCC)C(OCC(CC)CCCC)OCC(CC)CCCC (centres undefined)
inactive: [21] 101 % of control | [19] 98 % of control | [22] 101 % of control | [23] 94 % of control | dose: 400.0 mg/kg/injection, schedule: Q01DX009 (ip), vehicle: saline 113 % of control | [18] 91 % of control

CC(C)C[As](=O)(O)O
inactive: [2] 106 % of control | [4] 95 % of control

O=C1CCC2(CC2)C(=O)O1
inactive: [12] 91 % of control | [13] 95 % of control | [14] 91 % of control

CN(CCOc1ccccc1O)CCOc1ccccc1O
inactive: [2] 105 % of control | [3] 101 % of control | [4] 106 % of control | [5] 86 % of control | [6] 101 % of control

Cc1cc(=O)n(C)c[n+]1C
inactive: [20] 93 % of control | dose: 50.0 mg/kg/injection, schedule: Q01DX009 (ip), vehicle: saline 106 % of control | [7] 106 % of control | [21] 109 % of control | [8] 100 % of control | [22] 113 % of control | [9] 96 % of control

Cc1ccc(NC(=O)COc2ccc(Cl)cc2)c([N+](=O)[O-])c1
inactive: [1] 101 % of control | [2] 88 % of control | [3] 101 % of control | [4] 90 % of control | [5] 91 % of control | [6] 88 % of control

CCCCP(=O)(CCC)CCCC
inactive: [19] 99 % of control | [23] 94 % of control | [18] 87 % of control

Cc1ccc2c(c1)c(C)cc(=O)n2C
inactive: dose: 100.0 mg/kg/injection, schedule: Q01DX001 (ip), vehicle: other 96 % of control | dose: 200.0 mg/kg/injection, schedule: Q01DX001 (ip), vehicle: other 117 % of control

Cc1ccc(NC(=O)Oc2ccc(OC(=O)Cc3ccccc3)cc2)cc1NC(=O)Oc1ccc(OC(=O)Cc2ccccc2)cc1
inactive: dose: 100.0 mg/kg/injection, schedule: Q01DX009 (ip), vehicle: other 96 % of control | dose: 200.0 mg/kg/injection, schedule: Q01DX009 (ip), vehicle: other 98 % of control | dose: 400.0 mg/kg/injection, schedule: Q01DX009 (ip), vehicle: other 93 % of control

CCCCCCCCCCCCCCOc1ccc(Cl)cc1Cl
inactive: [1] 107 % of control | [3] 100 % of control | [5] 105 % of control
